Measured values reported in patent publication US9738634B2, “Heterocyclic amide compound and herbicide” (SYNGENTA PARTICIPATIONS AG, priority 2013, dated 2017).

Key:
Assay type in all cases: in vivo
beet [1] = assay: Test Example 4: foliar treatment, effect on crop; f: beet; conditions: treatment dosage 315 g/ha
Procedure, shortened: (§1)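 Seeds are spot-sown into sterilized diluvial soil and covered with about 1.5 cm of soil. After 14 days' greenhouse growth at 25 to 30° C, plants are sprayed on stems and leaves with diluted emulsion at the stated g/ha rate, then scored at 3 weeks.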

chickweed [2] = assay: Test Example 3: weedkilling efficacy through soil treatment; N: chickweed; conditions: treatment dosage 315 g/ha
Procedure, shortened: (§2)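 Crop and weed responses were judged three weeks after a uniform surface spray of the water-diluted emulsion at the given g/ha rate. Seeds sat beneath about 1.5 cm of sterilized diluvial soil, and boxes stood in a greenhouse at 25 to 30° C.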

wild oat [3] = assay: Test Example 4: weedkilling efficacy by foliar treatment; G: wild oat; conditions: treatment dosage 315 g/ha
Procedure, shortened: as §1

soybean [4] = assay: Test Example 3: soil treatment, effect on crop; d: soybean; conditions: treatment dosage 315 g/ha
Procedure, shortened: as §2

green foxtail [5] = assay: Test Example 4: weedkilling efficacy by foliar treatment; E: green foxtail; conditions: treatment dosage 315 g/ha
Procedure, shortened: as §1

common wind-grass [6] = assay: Test Example 3: weedkilling efficacy through soil treatment; J: common wind-grass; conditions: treatment dosage 315 g/ha
Procedure, shortened: as §2

corn [7] = assay: Test Example 4: foliar treatment, effect on crop; c: corn; conditions: treatment dosage 315 g/ha
Procedure, shortened: as §1

wheat [8] = assay: Test Example 4: foliar treatment, effect on crop; e: wheat; conditions: treatment dosage 315 g/ha
Procedure, shortened: as §1

redroot pigweed [9] = assay: Test Example 3: weedkilling efficacy through soil treatment; L: redroot pigweed; conditions: treatment dosage 315 g/ha
Procedure, shortened: as §2

barnyard grass [10] = assay: Test Example 4: weedkilling efficacy by foliar treatment; F: barnyard grass; conditions: treatment dosage 315 g/ha
Procedure, shortened: as §1

chickweed [11] = assay: Test Example 4: weedkilling efficacy by foliar treatment; N: chickweed; conditions: treatment dosage 315 g/ha
Procedure, shortened: as §1

oval-leafed pondweed [12] = assay: Test Example 1: weedkilling efficacy, preemergent weed treatment in the submerged state; C: oval-leafed pondweed; conditions: treatment dosage 252 g/ha
Procedure, shortened: (§3)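 Visual scores against set criteria were taken 3 weeks after treatment. Compounds, as diluted emulsions at specified g/ha, went onto the water surface of 4 cm-flooded alluvial soil pots on the day weeds were sown and 2.5-leaf rice was transplanted; greenhouse held 25–30 °C.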

common wind-grass [13] = assay: Test Example 4: weedkilling efficacy by foliar treatment; J: common wind-grass; conditions: treatment dosage 315 g/ha
Procedure, shortened: as §1

Indian mallow [14] = assay: Test Example 4: weedkilling efficacy by foliar treatment; K: Indian mallow; conditions: treatment dosage 315 g/ha
Procedure, shortened: as §1

redroot pigweed [15] = assay: Test Example 4: weedkilling efficacy by foliar treatment; L: redroot pigweed; conditions: treatment dosage 315 g/ha
Procedure, shortened: as §1

bulrush [16] = assay: Test Example 2: weedkilling efficacy, growth period weed treatment in the submerged state; B: bulrush; conditions: treatment dosage 252 g/ha
Procedure, shortened: (§4)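 Barnyard grass, bulrush and oval-leafed pondweed sown in alluvial soil under 4 cm flooding, greenhouse 25 to 30° C. At 1-2 leaf stage, water-diluted emulsion applied to the water surface at stated g/ha dosages; effects scored 3 weeks later.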

soybean [17] = assay: Test Example 4: foliar treatment, effect on crop; d: soybean; conditions: treatment dosage 315 g/ha
Procedure, shortened: as §1

wild oat [18] = assay: Test Example 3: weedkilling efficacy through soil treatment; G: wild oat; conditions: treatment dosage 315 g/ha
Procedure, shortened: as §2

Italian ryegrass [19] = assay: Test Example 4: weedkilling efficacy by foliar treatment; I: Italian ryegrass; conditions: treatment dosage 315 g/ha
Procedure, shortened: as §1

barnyard grass [20] = assay: Test Example 3: weedkilling efficacy through soil treatment; F: barnyard grass; conditions: treatment dosage 315 g/ha
Procedure, shortened: as §2

birds-eye speedwell [21] = assay: Test Example 3: weedkilling efficacy through soil treatment; p: birds-eye speedwell; conditions: treatment dosage 315 g/ha
Procedure, shortened: as §2

transplanted rice = assay: Test Example 1: preemergent weed treatment in the submerged state, effect on crop; a: transplanted rice; conditions: treatment dosage 252 g/ha
Procedure, shortened: as §3

catchweed [22] = assay: Test Example 3: weedkilling efficacy through soil treatment; O: catchweed; conditions: treatment dosage 315 g/ha
Procedure, shortened: as §2

Indian mallow [23] = assay: Test Example 3: weedkilling efficacy through soil treatment; K: Indian mallow; conditions: treatment dosage 315 g/ha
Procedure, shortened: as §2

barnyard grass [24] = assay: Test Example 1: weedkilling efficacy, preemergent weed treatment in the submerged state; A: barnyard grass; conditions: treatment dosage 252 g/ha
Procedure, shortened: as §3

black-grass [25] = assay: Test Example 4: weedkilling efficacy by foliar treatment; H: black-grass; conditions: treatment dosage 315 g/ha
Procedure, shortened: as §1

black-grass [26] = assay: Test Example 3: weedkilling efficacy through soil treatment; H: black-grass; conditions: treatment dosage 315 g/ha
Procedure, shortened: as §2

corn [27] = assay: Test Example 3: soil treatment, effect on crop; c: corn; conditions: treatment dosage 315 g/ha
Procedure, shortened: as §2

Italian ryegrass [28] = assay: Test Example 3: weedkilling efficacy through soil treatment; I: Italian ryegrass; conditions: treatment dosage 315 g/ha
Procedure, shortened: as §2

directly sown rice [29] = assay: Test Example 4: foliar treatment, effect on crop; b: directly sown rice; conditions: treatment dosage 315 g/ha
Procedure, shortened: as §1

rapeseed [30] = assay: Test Example 4: foliar treatment, effect on crop; g: rapeseed; conditions: treatment dosage 315 g/ha
Procedure, shortened: as §1

beet [31] = assay: Test Example 3: soil treatment, effect on crop; f: beet; conditions: treatment dosage 315 g/ha
Procedure, shortened: as §2

catchweed [32] = assay: Test Example 4: weedkilling efficacy by foliar treatment; O: catchweed; conditions: treatment dosage 315 g/ha
Procedure, shortened: as §1

crabgrass [33] = assay: Test Example 3: weedkilling efficacy through soil treatment; D: crabgrass; conditions: treatment dosage 315 g/ha
Procedure, shortened: as §2

directly sown rice [34] = assay: Test Example 3: soil treatment, effect on crop; b: directly sown rice; conditions: treatment dosage 315 g/ha
Procedure, shortened: as §2

birds-eye speedwell [35] = assay: Test Example 4: weedkilling efficacy by foliar treatment; p: birds-eye speedwell; conditions: treatment dosage 315 g/ha
Procedure, shortened: as §1

oval-leafed pondweed [36] = assay: Test Example 2: weedkilling efficacy, growth period weed treatment in the submerged state; C: oval-leafed pondweed; conditions: treatment dosage 252 g/ha
Procedure, shortened: as §4

wheat [37] = assay: Test Example 3: soil treatment, effect on crop; e: wheat; conditions: treatment dosage 315 g/ha
Procedure, shortened: as §2

bulrush [38] = assay: Test Example 1: weedkilling efficacy, preemergent weed treatment in the submerged state; B: bulrush; conditions: treatment dosage 252 g/ha
Procedure, shortened: as §3

crabgrass [39] = assay: Test Example 4: weedkilling efficacy by foliar treatment; D: crabgrass; conditions: treatment dosage 315 g/ha
Procedure, shortened: as §1

rapeseed [40] = assay: Test Example 3: soil treatment, effect on crop; g: rapeseed; conditions: treatment dosage 315 g/ha
Procedure, shortened: as §2

barnyard grass [41] = assay: Test Example 2: weedkilling efficacy, growth period weed treatment in the submerged state; A: barnyard grass; conditions: treatment dosage 252 g/ha
Procedure, shortened: as §4

green foxtail [42] = assay: Test Example 3: weedkilling efficacy through soil treatment; E: green foxtail; conditions: treatment dosage 315 g/ha
Procedure, shortened: as §2

CC1=C(c2ccccc2)C(=O)N(C(C)(C)C(=O)Nc2cc(F)cc(F)n2)CO1 [B-2-33]
f (beet) effect on crop grade (beet [1]): 4 (weed kill ratio 70% or more, less than 90%)
N (chickweed) weedkilling efficacy grade (chickweed [2]): 4 (weed kill ratio 70% or more, less than 90%)
G (wild oat) weedkilling efficacy grade (wild oat [3]): 5 (weed kill ratio 90% or more, (practically complete withering))
d (soybean) effect on crop grade (soybean [4]): 4 (weed kill ratio 70% or more, less than 90%)
E (green foxtail) weedkilling efficacy grade (green foxtail [5]): 5 (weed kill ratio 90% or more, (practically complete withering))
J (common wind-grass) weedkilling efficacy grade (common wind-grass [6]): 5 (weed kill ratio 90% or more, (practically complete withering))
c (corn) effect on crop grade (corn [7]): 3 (weed kill ratio 40% or more, less than 70%)
e (wheat) effect on crop grade (wheat [8]): 4 (weed kill ratio 70% or more, less than 90%)
L (redroot pigweed) weedkilling efficacy grade (redroot pigweed [9]): 4 (weed kill ratio 70% or more, less than 90%)
F (barnyard grass) weedkilling efficacy grade (barnyard grass [10]): 5 (weed kill ratio 90% or more, (practically complete withering))
N (chickweed) weedkilling efficacy grade (chickweed [11]): 4 (weed kill ratio 70% or more, less than 90%)
C (oval-leafed pondweed) weedkilling efficacy grade (oval-leafed pondweed [12]): 5 (weed kill ratio 90% or more, (practically complete withering))
J (common wind-grass) weedkilling efficacy grade (common wind-grass [13]): 5 (weed kill ratio 90% or more, (practically complete withering))
K (Indian mallow) weedkilling efficacy grade (Indian mallow [14]): 4 (weed kill ratio 70% or more, less than 90%)
L (redroot pigweed) weedkilling efficacy grade (redroot pigweed [15]): 4 (weed kill ratio 70% or more, less than 90%)
B (bulrush) weedkilling efficacy grade (bulrush [16]): 5 (weed kill ratio 90% or more, (practically complete withering))
d (soybean) effect on crop grade (soybean [17]): 4 (weed kill ratio 70% or more, less than 90%)
G (wild oat) weedkilling efficacy grade (wild oat [18]): 5 (weed kill ratio 90% or more, (practically complete withering))
I (Italian ryegrass) weedkilling efficacy grade (Italian ryegrass [19]): 5 (weed kill ratio 90% or more, (practically complete withering))
F (barnyard grass) weedkilling efficacy grade (barnyard grass [20]): 5 (weed kill ratio 90% or more, (practically complete withering))
P (birds-eye speedwell) weedkilling efficacy grade (birds-eye speedwell [21]): 5 (weed kill ratio 90% or more, (practically complete withering))
a (transplanted rice) effect on crop grade (transplanted rice): 3 (weed kill ratio 40% or more, less than 70%)
O (catchweed) weedkilling efficacy grade (catchweed [22]): 5 (weed kill ratio 90% or more, (practically complete withering))
K (Indian mallow) weedkilling efficacy grade (Indian mallow [23]): 5 (weed kill ratio 90% or more, (practically complete withering))
A (barnyard grass) weedkilling efficacy grade (barnyard grass [24]): 5 (weed kill ratio 90% or more, (practically complete withering))
H (black-grass) weedkilling efficacy grade (black-grass [25]): 5 (weed kill ratio 90% or more, (practically complete withering))
H (black-grass) weedkilling efficacy grade (black-grass [26]): 5 (weed kill ratio 90% or more, (practically complete withering))
c (corn) effect on crop grade (corn [27]): 3 (weed kill ratio 40% or more, less than 70%)
I (Italian ryegrass) weedkilling efficacy grade (Italian ryegrass [28]): 5 (weed kill ratio 90% or more, (practically complete withering))
b (directly sown rice) effect on crop grade (directly sown rice [29]): 5 (weed kill ratio 90% or more, (practically complete withering))
g (rapeseed) effect on crop grade (rapeseed [30]): 4 (weed kill ratio 70% or more, less than 90%)
f (beet) effect on crop grade (beet [31]): 1 (weed kill ratio 5% or more, less than 20%)
O (catchweed) weedkilling efficacy grade (catchweed [32]): 5 (weed kill ratio 90% or more, (practically complete withering))
D (crabgrass) weedkilling efficacy grade (crabgrass [33]): 5 (weed kill ratio 90% or more, (practically complete withering))
b (directly sown rice) effect on crop grade (directly sown rice [34]): 5 (weed kill ratio 90% or more, (practically complete withering))
P (birds-eye speedwell) weedkilling efficacy grade (birds-eye speedwell [35]): 5 (weed kill ratio 90% or more, (practically complete withering))
C (oval-leafed pondweed) weedkilling efficacy grade (oval-leafed pondweed [36]): 5 (weed kill ratio 90% or more, (practically complete withering))
e (wheat) effect on crop grade (wheat [37]): 5 (weed kill ratio 90% or more, (practically complete withering))
B (bulrush) weedkilling efficacy grade (bulrush [38]): 5 (weed kill ratio 90% or more, (practically complete withering))
D (crabgrass) weedkilling efficacy grade (crabgrass [39]): 5 (weed kill ratio 90% or more, (practically complete withering))
g (rapeseed) effect on crop grade (rapeseed [40]): 5 (weed kill ratio 90% or more, (practically complete withering))
A (barnyard grass) weedkilling efficacy grade (barnyard grass [41]): 5 (weed kill ratio 90% or more, (practically complete withering))
E (green foxtail) weedkilling efficacy grade (green foxtail [42]): 5 (weed kill ratio 90% or more, (practically complete withering))
